# Like-named read-outs stand apart in the source and are kept apart here. Numbered stars: 1 amine (or outer) side, 2 acyl side, 3 side chain; on linkers, the order of the positions; unused ones are H or OH. Bridge positions count the residues as written; N and C are the ends. Square brackets hold non-standard residues; d marks the D form. Peptide text beside a SMILES is read from it. * marks the point of attachment. X1 = CN1C[C@H](CSCCN(CCSC[C@@H]2C[C@@H]3c4cccc5[nH]cc(c45)C[C@H]3N(C)C2)[C@H](CCCCN[*:2])C(=O)[*:1])C[C@@H]2c3cccc4[nH]cc(c34)C[C@H]21; X2 = CN1C[C@H](CSCC(=O)*)C[C@@H]2c3cccc4[nH]cc(c34)C[C@H]21; dDab = NCC[C@@H](N)C(=O)O
# What was measured:
# [1] = molecular target: T1, hSSTR2 (Homo sapiens, UniProt P30874); assay: Intracellular calcium mobilization assay (FLIPR Calcium 4), hSSTR2; type: cell-based;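 also: agonist activity measured in cells expressing hSSTR2, seeded in 384-well plates, loaded with Calcium 4 dye, read-out as rise in intracellular calcium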
# T1 construct: host or cells: 'Cells expressing hSSTR2'
# T1 sequence (P30874 whole entry): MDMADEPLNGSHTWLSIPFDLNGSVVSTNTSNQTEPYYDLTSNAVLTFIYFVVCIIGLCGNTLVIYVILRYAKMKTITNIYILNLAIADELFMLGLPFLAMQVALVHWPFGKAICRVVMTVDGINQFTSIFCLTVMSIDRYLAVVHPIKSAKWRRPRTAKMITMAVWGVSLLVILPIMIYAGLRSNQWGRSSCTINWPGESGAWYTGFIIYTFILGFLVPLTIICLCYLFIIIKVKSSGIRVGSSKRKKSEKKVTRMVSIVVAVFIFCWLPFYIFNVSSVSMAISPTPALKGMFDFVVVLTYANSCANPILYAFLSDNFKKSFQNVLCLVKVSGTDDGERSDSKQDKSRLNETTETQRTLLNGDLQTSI
# Description: The ability of select compounds according to the present invention to activate hSSTR2 and hDRD2 was determined by the intracellular calcium mobilization assay using FLIPR Calcium 4 assay kit (Molecular Devices).
# Cells expressing hSSTR2 or hDRD2 were plated in 384-well microplates in tissue culture media and incubated for 16-24 hours at 37°C in a humidified atmosphere with 5% CO2. Medium was replaced by loading buffer containing Hank's buffered saline, 20 mM HEPES, 2.5 mM probenecid and Calcium 4 dye, and the plates were incubated at 37°C for 60 minutes.
# [2] = molecular target: T1, hSSTR2; assay: Somatostatin receptor radioligand binding assay (hSSTR2);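 also: radioligand displacement on membranes of CHO-K1 cells stably transfected with human SSTR2, specific binding taken as total minus binding left with 1000 nM SRIF-14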
# [3] = molecular target: T2, hDRD2 (Homo sapiens, UniProt P14416); assay: cell-based; set-up: host or cells: 'Cells expressing hDRD2'; conditions: for Emax: read-out: hDRD2 %Emax ± SEM
# T2 sequence (P14416 whole entry): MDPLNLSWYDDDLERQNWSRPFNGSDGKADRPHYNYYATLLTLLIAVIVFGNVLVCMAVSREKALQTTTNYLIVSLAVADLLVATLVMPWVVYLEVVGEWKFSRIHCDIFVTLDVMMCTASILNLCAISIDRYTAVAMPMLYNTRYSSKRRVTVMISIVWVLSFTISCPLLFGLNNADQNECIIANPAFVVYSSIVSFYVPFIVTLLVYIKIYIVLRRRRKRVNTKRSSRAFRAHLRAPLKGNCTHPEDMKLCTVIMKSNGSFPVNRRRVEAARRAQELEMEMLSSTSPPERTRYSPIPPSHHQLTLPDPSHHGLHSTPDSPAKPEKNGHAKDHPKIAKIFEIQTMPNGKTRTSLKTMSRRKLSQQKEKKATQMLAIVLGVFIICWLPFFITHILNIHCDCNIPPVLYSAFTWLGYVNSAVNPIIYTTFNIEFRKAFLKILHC
# [4] = molecular target: T2, hDRD2; assay: biochemical; type: binding; set-up: expressed in transfected cells; host or cells: CHO-K1, pcDNA3.1/GS, zeocin-selected clonal line; membranes
# [5] = CHO-K1 cell membranes, […] [3H]-spiperone, 60 minutes at 25°C, read-out: hDRD2 Ki (nM) ± SEM
Compound,EC50 [1],Ki [2],Emax [3],"Ki [4, 5]",other results
"C[C@@H](O)[C@@H]1NC(=O)[C@H](CCCCN)NC(=O)[C@@H](Cc2c[nH]c3ccccc23)NC(=O)[C@H](Cc2ccccc2)NC(=O)[C@H](Cc2ccccc2)NC(=O)[C@H](CCCNC(=N)N)NC(=O)[C@H](NC[C@H](Cc2ccc(O)cc2)NC(=O)CSC[C@@H]2C[C@@H]3c4cccc5[nH]cc(c45)C[C@H]3N(C)C2)CCCNC(=O)[C@H](Cc2ccccc2)NC1=O [Compound 30, Dop1-Tyr-psi(CH2NH)-cyclo(DOrn-Arg-Phe-Phe-DTrp-Lys-Thr-Phe)]",13.1 ± 4.2 nM,0.4 ± 0.06 nM,–,–,–
"C[C@@H](O)[C@@H]1NC(=O)[C@H](CCCCN)NC(=O)[C@@H](Cc2c[nH]c3ccccc23)NC(=O)[C@H](Cc2ccccc2)NC(=O)[C@H](Cc2ccccc2)NC(=O)[C@H](CCCNC(=N)N)NC(=O)[C@H](N(CCSC[C@@H]2C[C@@H]3c4cccc5[nH]cc(c45)C[C@H]3N(C)C2)CCSC[C@@H]2C[C@@H]3c4cccc5[nH]cc(c45)C[C@H]3N(C)C2)CCCCNC(=O)[C@H](Cc2ccccc2)NC1=O [Compound 40, bis[Dop1-psi(CH2N)]-cyclo(DLys-Arg-Phe-Phe-DTrp-Lys-Thr-Phe)] (RFF[dW]KTF; linker N-C via X1)",27 ± 6.5 nM,3.17 ± 1.41 nM,91.5%,–,EC50 [3]: 123 ± 6.5 nM
"C[C@@H](O)[C@@H]1NC(=O)[C@H](CCCCN)NC(=O)[C@@H](Cc2c[nH]c3ccccc23)NC(=O)[C@H](Cc2ccccc2)NC(=O)[C@H](Cc2ccccc2)NC(=O)[C@H](CCCNC(=N)N)NC(=O)[C@H](NC(=O)[C@H](CCCCNC(=O)CSC[C@@H]2C[C@@H]3c4cccc5[nH]cc(c45)C[C@H]3N(C)C2)NC(=O)CSC[C@@H]2C[C@@H]3c4cccc5[nH]cc(c45)C[C@H]3N(C)C2)CCNC(=O)[C@H](Cc2ccccc2)NC1=O [Reference Compound C, Dopl-Lys(Dopl)-cyclo(DDab-Arg-Phe-Phe-DTrp-Lys-Thr-Phe), reference compound] (X2-K(X2)[dDab]RFF[dW]KTF; lactam 2-C (inferred))",–,–,101 ± 0.8%,–,Emax ([1]; read-out: hSSTR2 %Emax ± SEM): 60.6 ± 3.2%
"C[C@@H](O)[C@@H]1NC(=O)[C@H](CCCCN)NC(=O)[C@@H](Cc2c[nH]c3ccccc23)NC(=O)[C@H](Cc2ccccc2)NC(=O)[C@H](Cc2ccccc2)NC(=O)[C@H](CCCNC(=N)N)NC(=O)[C@H](NC[C@@H](Cc2ccc(O)cc2)NC(=O)CSC[C@@H]2C[C@@H]3c4cccc5[nH]cc(c45)C[C@H]3N(C)C2)CCCCNC(=O)[C@H](Cc2ccccc2)NC1=O [Compound 41, Dop1-DTyr-psi(CH2NH)-cyclo(DLys-Arg-Phe-Phe-DTrp-Lys-Thr-Phe)]",–,–,91.2%,8.5 ± 3.6 nM,"Ki ([2]; CHO-K1 cell membranes, 0.05 nM [125I-Tyr]-seglitide, 60 minutes at 25°C, read-out: hSSTR2 Ki (nM) ± SEM): 0.37 nM"
"C[C@@H](O)[C@@H]1NC(=O)[C@H](CCCCN)NC(=O)[C@@H](Cc2c[nH]c3ccccc23)NC(=O)[C@H](Cc2cccnc2)NC(=O)[C@H](Cc2ccccc2)NC(=O)[C@H](CCCNC(=N)N)NC(=O)[C@H](NC[C@H](Cc2ccc(O)cc2)NC(=O)CSC[C@@H]2C[C@@H]3c4cccc5[nH]cc(c45)C[C@H]3N(C)C2)CCCCNC(=O)[C@H](Cc2ccccc2)NC1=O [Compound 38, Dop1-Tyr-psi(CH2NH)-cyclo(DLys-Arg-Phe-3Pal-DTrp-Lys-Thr-Phe)]",–,–,97.5 ± 0.3%,179 ± 113 nM,–
"CC(=O)N(CCCNC(CN[C@@H]1CCCCNC(=O)[C@H](Cc2ccc(F)cc2)NC(=O)[C@H]([C@@H](C)O)NC(=O)[C@H](CCCCN)NC(=O)[C@@H](Cc2c[nH]c3ccccc23)NC(=O)[C@H](Cc2ccccc2)NC(=O)[C@H](Cc2ccccc2)NC(=O)[C@H](CCCNC(=N)N)NC1=O)Cc1ccc(O)cc1)C[C@@H]1C[C@@H]2c3cccc4[nH]cc(c34)C[C@H]2N(C)C1 (single isomer, unassigned) [Compound 28A, 3-[N-acetyl-N-(D-6-methyl-8β-ergolinylmethyl)]-aminopropionyl-psi(CH2NH)-Tyr-psi(CH2NH)-cyclo(DLys-Arg-Phe-Phe-DTrp-Lys-Thr-4FPhe)]",–,0.04 ± 0.02 nM,79.7 ± 11.4%,–,Ki [4]: 14 ± 3.4 nM
